Our source for the inhibition and IC50 values is patent US9447091B2, “Protein kinase inhibitors” (Orion Corporation, priority 2011, dated 2016).

For experiment [1], the target named is FGFR1 kinase (Homo sapiens (Human), UniProt P11362). As to the kind of experiment: FGFR1 TR-FRET kinase assay. Particulars: for inhibition at 1 µM: 1000 nM compound; for IC50: 13 μM ATP, read-out: IC50 of FGFR1 inhibition. Format: biochemical. Here is the method: Compounds were screened in the TR-FRET assay with FGFR1 kinase. 5 ng of FGFR1 [Upstate, USA] kinase was used for assay. The compound was incubated with the kinase for 30 minutes at RT. After the incubation, substrate mix [40 nM Ultra light poly GT (Perkin Elmer, USA) and 13 μM ATP (Sigma)] was added. The above reaction was stopped by the addition of 40 mM EDTA after the […] kinase reaction. The Eu-labelled antiphospho-tyrosine antibody [Perkin Elmer, USA] was added at 0.5 nM and the fluorescence emission at 615 nm/665 nm [excitation at 340 nm] was measured. The compounds were initially screened at 100 nM and 1 μM concentrations. The compounds with >50% inhibition at 100 nM of FGFR1 were taken for the full dose response studies. The final DMSO concentration in the assay was 1%. For IC50 determination, ⅓^rd serial dilution was made from the 20 mM DMSO stock solution. 2 μl of these were transferred to the test wells containing 20 μl of the reaction mixture [total reaction volume 20 μl]. The fluorescence was measured in Perkin Elmer Wallac 1420 Multilabel Counter Victor 3. The IC50 was determined by fitting the dose response data to sigmoidal curve fitting equation using GraphPad Prism software V5.
In general terms: Time-resolved FRET reads energy transfer from a long-lived donor to a nearby acceptor.

Experiment [2] concerns the target c-Met kinase (Homo sapiens (Human), UniProt P08581). The experiment is described as follows: c-Met TR-FRET kinase assay. Format: biochemical. Particulars: 1000 nM compound. Here is the method: Compounds were screened in the TR-FRET assay with c-Met kinase. 0.1 ng of c-Met [expressed in-house] kinase was used for assay. The compound was incubated with the kinase for 60 min at RT. After the incubation, substrate mix [40 nM Ultra light poly GT (Perkin Elmer, USA) and 10 μM ATP (Sigma)] was added. The above reaction was stopped by the addition of 40 mM EDTA after the 30 min kinase reaction. The Eu-labelled antiphospho-tyrosine antibody [Perkin Elmer, USA] was added at 0.5 nM and the fluorescence emission at 615 nm/665 nm [excitation at 340 nm] was measured. The compounds were initially screened at 100 nM and 1 μM concentrations. The compounds with >50% inhibition at 100 nM of c-Met were taken for the full dose response studies. The final DMSO concentration in the assay was 1%. For IC50 determination, ⅓rd serial dilution was made from the 20 mM DMSO stock solution. 2 μl of these were transferred to the test wells containing 20 μl reaction mixture [total reaction volume 20 μl]. The fluorescence was measured in Perkin Elmer Wallac 1420 Multilabel Counter Victor 3. The IC50 was determined by fitting the dose response data to sigmoidal curve fitting equation using GraphPad Prism software V5.

c-Met kinase, sequence (P08581 25-1390): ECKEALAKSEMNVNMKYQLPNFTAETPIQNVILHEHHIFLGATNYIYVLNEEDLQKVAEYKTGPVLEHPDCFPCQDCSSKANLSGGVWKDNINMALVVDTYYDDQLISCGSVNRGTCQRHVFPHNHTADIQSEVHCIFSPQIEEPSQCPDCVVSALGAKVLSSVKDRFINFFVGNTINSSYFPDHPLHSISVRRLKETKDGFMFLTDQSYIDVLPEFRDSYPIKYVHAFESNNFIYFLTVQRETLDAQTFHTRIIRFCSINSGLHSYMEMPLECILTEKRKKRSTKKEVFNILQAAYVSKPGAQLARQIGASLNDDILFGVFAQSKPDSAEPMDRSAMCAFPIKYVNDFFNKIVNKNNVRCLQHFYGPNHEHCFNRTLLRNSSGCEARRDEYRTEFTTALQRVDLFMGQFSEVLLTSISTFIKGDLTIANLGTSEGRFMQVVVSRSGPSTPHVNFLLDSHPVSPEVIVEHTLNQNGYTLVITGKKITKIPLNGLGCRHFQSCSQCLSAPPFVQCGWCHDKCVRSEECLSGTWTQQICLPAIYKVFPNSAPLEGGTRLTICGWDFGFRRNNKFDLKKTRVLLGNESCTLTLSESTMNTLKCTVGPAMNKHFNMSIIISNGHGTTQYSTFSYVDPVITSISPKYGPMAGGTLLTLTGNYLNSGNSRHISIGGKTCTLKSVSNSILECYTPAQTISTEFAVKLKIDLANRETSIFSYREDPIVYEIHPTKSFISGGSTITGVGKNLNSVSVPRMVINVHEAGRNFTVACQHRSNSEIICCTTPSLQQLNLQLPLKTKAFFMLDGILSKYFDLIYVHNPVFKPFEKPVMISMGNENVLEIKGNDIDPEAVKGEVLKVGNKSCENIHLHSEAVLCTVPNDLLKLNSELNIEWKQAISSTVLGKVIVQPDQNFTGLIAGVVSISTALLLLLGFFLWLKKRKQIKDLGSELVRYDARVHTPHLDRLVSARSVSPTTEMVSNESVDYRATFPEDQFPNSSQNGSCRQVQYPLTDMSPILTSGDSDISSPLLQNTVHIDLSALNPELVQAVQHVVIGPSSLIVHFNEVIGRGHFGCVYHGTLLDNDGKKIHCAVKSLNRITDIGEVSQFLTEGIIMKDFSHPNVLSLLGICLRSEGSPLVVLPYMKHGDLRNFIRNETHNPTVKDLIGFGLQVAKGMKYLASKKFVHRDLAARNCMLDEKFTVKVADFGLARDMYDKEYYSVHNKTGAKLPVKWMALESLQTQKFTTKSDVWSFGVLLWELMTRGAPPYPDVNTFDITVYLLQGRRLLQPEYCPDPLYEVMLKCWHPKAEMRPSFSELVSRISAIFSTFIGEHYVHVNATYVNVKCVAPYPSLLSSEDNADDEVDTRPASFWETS
FGFR1 kinase, sequence (P11362 22-822): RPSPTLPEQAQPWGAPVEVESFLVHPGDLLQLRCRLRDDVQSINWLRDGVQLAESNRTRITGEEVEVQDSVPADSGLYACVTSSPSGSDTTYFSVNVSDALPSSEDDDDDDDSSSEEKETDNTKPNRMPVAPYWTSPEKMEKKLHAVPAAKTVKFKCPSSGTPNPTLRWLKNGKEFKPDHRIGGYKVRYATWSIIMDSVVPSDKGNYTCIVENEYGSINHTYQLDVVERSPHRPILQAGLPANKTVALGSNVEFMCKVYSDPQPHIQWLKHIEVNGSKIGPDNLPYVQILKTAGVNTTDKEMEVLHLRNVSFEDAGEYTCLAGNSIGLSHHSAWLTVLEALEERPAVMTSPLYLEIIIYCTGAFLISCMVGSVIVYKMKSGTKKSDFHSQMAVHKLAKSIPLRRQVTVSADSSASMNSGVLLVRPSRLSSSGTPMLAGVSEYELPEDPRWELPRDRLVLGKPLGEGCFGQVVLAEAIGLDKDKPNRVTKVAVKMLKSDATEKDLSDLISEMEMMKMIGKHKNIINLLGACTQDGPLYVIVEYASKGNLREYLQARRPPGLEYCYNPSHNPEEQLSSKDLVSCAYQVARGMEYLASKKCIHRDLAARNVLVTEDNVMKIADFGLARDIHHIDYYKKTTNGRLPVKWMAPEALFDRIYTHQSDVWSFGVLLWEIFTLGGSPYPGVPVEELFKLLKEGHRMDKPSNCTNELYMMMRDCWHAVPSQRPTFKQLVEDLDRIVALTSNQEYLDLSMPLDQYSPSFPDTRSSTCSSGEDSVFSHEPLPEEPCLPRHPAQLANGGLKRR

The term inhibition denotes the change of the read-out against control, counted positive when it falls. Broadly, the IC50 is the concentration needed to halve the response being measured. Regarding `O=C(Nc1cc(-c2ccc(F)cc2F)cc(-n2cnc3cc(-n4cccn4)ccc32)c1)NC1CCCC1` [Example 38, 1-(5-(5-(1H-pyrazol-1-yl)-1H-benzo[d]imidazol-1-yl)-2′,4′-difluorobiphenyl-3-yl)-3-cyclopentylurea], the inhibition at 1 µM is 88% in experiment [1] and 0% in experiment [2]. In addition, the IC50 in experiment [1] was found to be 33 nM.

On to `CC(C)(O)CCn1cc(-c2ccc3c(c2)ncn3-c2cc(NS(=O)(=O)C3CC3)cc(-c3ccc(F)cc3F)c2)nn1` [Example 47, N-(2′,4′-difluoro-5-(5-(1-(3-hydroxy-3-methylbutyl)-1H-1,2,3-triazol-4-yl)-1H-benzo[d]imidazol-1-yl)biphenyl-3-yl)cyclopropanesulfonamide], for which, in experiment [1], the inhibition at 1 µM is 99% and the IC50 is 7 nM. Further, the inhibition at 1 µM in experiment [2] amounted to 10%.

Regarding `CCS(=O)(=O)Nc1cc(-c2ccc(F)cc2F)cc(-n2cnc3cc(-c4cn(CCN5CCOCC5)nn4)ccc32)c1` [Example 49, N-(2′,4′-difluoro-5-(5-(1-(2-morpholinoethyl)-1H-1,2,3-triazol-4-yl)-1H-benzo[d]imidazol-1-yl)biphenyl-3-yl)ethanesulfonamide], in experiment [1], the inhibition at 1 µM worked out at 98% and the IC50 worked out at 3.4 nM. Moreover, the inhibition at 1 µM in experiment [2] was 9%.

As for `COc1ccc(-c2ccc3c(c2)ncn3-c2cc(NC(C)=O)cc(-c3ccc(F)cc3)c2)cn1` [Example 69, N-(4′-fluoro-5-(5-(6-methoxypyridin-3-yl)-1H-benzo[d]imidazol-1-yl)biphenyl-3-yl)acetamide], the figures for the inhibition at 1 µM in experiment [1] and in experiment [2] were 87% and -2%, respectively. In addition, the IC50 in experiment [1] turned out to be 22 nM.

`CC(=O)Nc1cc(-c2ccc(F)cc2)cc(-n2cnc3cc(-n4cccn4)ccc32)c1` [Example 70, N-(5-(5-(1H-pyrazol-1-yl)-1H-benzo[d]imidazol-1-yl)-4′-fluorobiphenyl-3-yl)-acetamide]: the inhibition at 1 µM amounted to 99% in experiment [1] and 0% in experiment [2]. For the same compound, the IC50 in experiment [1] worked out at 10 nM.

`CCS(=O)(=O)Nc1cc(-c2ccc(F)cc2)cc(-n2cnc3cc(-n4cccn4)ccc32)c1` [Example 72, N-(5-(5-(1H-pyrazol-1-yl)-1H-benzo[d]imidazol-1-yl)-4′-fluorobiphenyl-3-yl)-ethanesulfonamide]: in experiment [1], the inhibition at 1 µM was 98% and the IC50 was 32 nM. In addition, the inhibition at 1 µM in experiment [2] was 11%.

In the case of `CC(=O)Nc1cc(-c2ccc(C)o2)cc(-n2cnc3cc(-c4cnn(CCN(C)C)c4)ccc32)c1` [Example 82, N-(3-(5-(1-(2-(dimethylamino)ethyl)-1H-pyrazol-4-yl)-1H-benzo[d]imidazol-1-yl)-5-(5-methylfuran-2-yl)phenyl)acetamide], in experiment [1], the inhibition at 1 µM stood at 96% and the IC50 stood at 16 nM. Besides, the inhibition at 1 µM in experiment [2] is 15%.

`CC(=O)Nc1cc(-c2ccc(C)o2)cc(-n2cnc3cc(-c4cnn(CCN5CCOCC5)c4)ccc32)c1` [Example 83, N-(3-(5-methylfuran-2-yl)-5-(5-(1-(2-morpholinoethyl)-1H-pyrazol-4-yl)-1H-benzo[d]imidazol-1-yl)phenyl)acetamide]: in experiment [1], the inhibition at 1 µM turned out to be 95% and the IC50 is 37 nM. In addition, the inhibition at 1 µM in experiment [2] was found to be 5%.

Turning to `CC(=O)Nc1cc(-n2cccc2)cc(-n2cnc3cc(-c4cn(CCC(C)(C)O)nn4)ccc32)c1` [Example 112, N-(3-(5-(1-(3-hydroxy-3-methylbutyl)-1H-1,2,3-triazol-4-yl)-1H-benzo[d]-imidazol-1-yl)-5-(1H-pyrrol-1-yl)phenyl)acetamide], in experiment [1], the inhibition at 1 µM was found to be 97% and the IC50 is 1.8 nM. In addition, in experiment [2], the inhibition at 1 µM is 0%.

As for `Cn1cc(-c2ccc3c(c2)ncn3-c2cc(NS(=O)(=O)N3CCCCC3)cc(-n3cccn3)c2)cn1` [Example 119, N-(3-(5-(1-methyl-1H-pyrazol-4-yl)-1H-benzo[d]imidazol-1-yl)-5-(1H-pyrazol-1-yl)phenyl)piperidine-1-sulfonamide], in experiment [1], the inhibition at 1 µM was 94% and the IC50 is 83 nM. Besides, the inhibition at 1 µM in experiment [2] amounted to 23%.

Take `O=C(NCc1ccco1)Nc1cc(-n2cccn2)cc(-n2cnc3cc(-n4cccn4)ccc32)c1` [Example 123, 1-(3-(5-(1H-pyrazol-1-yl)-1H-benzo[d]imidazol-1-yl)-5-(1H-pyrazol-1-yl)-phenyl)-3-(furan-2-ylmethyl)urea]: the inhibition at 1 µM in experiment [1] amounted to 94%; in experiment [2], 0%. For the same compound, the IC50 in experiment [1] stood at 61 nM.

For `CC(=O)Nc1cc(-n2cccn2)cc(-n2cnc3cc(-c4cnn(CC5CC5)c4)ccc32)c1` [Example 127, N-(3-(5-(1-(cyclopropylmethyl)-1H-pyrazol-4-yl)-1H-benzo[d]imidazol-1-yl)-5-(1H-pyrazol-1-yl)phenyl)acetamide], in experiment [1], the inhibition at 1 µM is 91% and the IC50 is 62 nM. Besides, in experiment [2], the inhibition at 1 µM worked out at 10%.

Turning to `CC(=O)Nc1cc(-c2ccc(F)cc2F)cc(-n2cnc3cc(-c4cnn(C)c4)cnc32)c1` [Example 131, N-(2′,4′-difluoro-5-(6-(1-methyl-1H-pyrazol-4-yl)-3H-imidazo[4,5-b]pyridin-3-yl)biphenyl-3-yl)acetamide], the inhibition at 1 µM in experiment [1] worked out at 99%; in experiment [2] it was 15%. Further, the IC50 in experiment [1] worked out at 1.3 nM.

As to `CCS(=O)(=O)Nc1cc(-c2ccc(F)cc2F)cc(-n2cnc3cc(-c4cnn(C)c4)cnc32)c1` [Example 133, N-(2′,4′-difluoro-5-(6-(1-methyl-1H-pyrazol-4-yl)-3H-imidazo[4,5-b]pyridin-3-yl)biphenyl-3-yl)ethanesulfonamide], in experiment [1], the inhibition at 1 µM is 97% and the IC50 is 14 nM. Besides, the inhibition at 1 µM in experiment [2] was 0%.

`Cn1cc(-c2cnc3c(c2)ncn3-c2cc(NS(=O)(=O)c3ccccc3)cc(-c3ccc(F)cc3F)c2)cn1` [Example 134, N-(2′,4′-difluoro-5-(6-(1-methyl-1H-pyrazol-4-yl)-3H-imidazo[4,5-b]pyridin-3-yl)biphenyl-3-yl)benzenesulfonamide]: in experiment [1], the inhibition at 1 µM worked out at 92% and the IC50 stood at 98 nM. Besides, the inhibition at 1 µM in experiment [2] was determined as 0%.

Turning to `CC(C)S(=O)(=O)Nc1cc(-c2cc(F)ccc2F)cc(-n2cnc3cc(-c4cnn(CCN5CCOCC5)c4)ccc32)c1` [Example 142, N-(2′,5′-difluoro-5-(5-(1-(2-morpholinoethyl)-1H-pyrazol-4-yl)-1H-benzo[d]-imidazol-1-yl)biphenyl-3-yl)propane-2-sulfonamide], the inhibition at 1 µM in experiment [1] was 91%; in experiment [2], 0%. Moreover, in experiment [1], the IC50 was found to be 48 nM.

Consider `CC(=O)Nc1cc(-c2c(F)cccc2F)cc(-n2cnc3cc(-n4cccn4)ccc32)c1` [Example 152, N-(5-(5-(1H-pyrazol-1-yl)-1H-benzo[d]imidazol-1-yl)-2′,6′-difluorobiphenyl-3-yl)acetamide], for which, in experiment [1], the inhibition at 1 µM came out at 79% and the IC50 is 7.3 nM. Besides, the inhibition at 1 µM in experiment [2] was 0%.

For `CC(=O)Nc1cc(-n2cncn2)cc(-n2cnc3cc(-c4cnn(C)c4)ccc32)c1` [Example 155, N-(3-(5-(1-methyl-1H-pyrazol-4-yl)-1H-benzo[d]imidazol-1-yl)-5-(1H-1,2,4-triazol-1-yl)phenyl)acetamide], in experiment [1], the inhibition at 1 µM was 89% and the IC50 worked out at 62 nM. Moreover, the inhibition at 1 µM in experiment [2] was determined as 1%.

Regarding `COc1ccc(-c2cc(NC(C)=O)cc(-n3cnc4cc(-c5cnn(C)c5)ccc43)c2)cn1` [Example 158, N-(3-(6-methoxypyridin-3-yl)-5-(5-(1-methyl-1H-pyrazol-4-yl)-1H-benzo[d]-imidazol-1-yl)phenyl)acetamide], in experiment [1], the inhibition at 1 µM worked out at 95% and the IC50 was 22 nM. Also, in experiment [2], the inhibition at 1 µM worked out at 12%.
